Experiments:
Type in all cases: biochemical
[1] = molecular target: T1, Human Factor XIIa (Homo sapiens, UniProt P00748); experiment: Determination of FXIIa inhibition (fluorogenic substrate H-DPro-Phe-Arg-AFC, IC50 assay); details: substrate at Km concentration, 25° C.; category scale; read-out: Human FXII IC50 (nm)
T1 construct: Proteolytic cleavage of FXII to heavy and light chains of FXIIa dramatically increases catalytic activity; purchased Enzyme Research Laboratories
T1 sequence (P00748 373-615 limits assumed): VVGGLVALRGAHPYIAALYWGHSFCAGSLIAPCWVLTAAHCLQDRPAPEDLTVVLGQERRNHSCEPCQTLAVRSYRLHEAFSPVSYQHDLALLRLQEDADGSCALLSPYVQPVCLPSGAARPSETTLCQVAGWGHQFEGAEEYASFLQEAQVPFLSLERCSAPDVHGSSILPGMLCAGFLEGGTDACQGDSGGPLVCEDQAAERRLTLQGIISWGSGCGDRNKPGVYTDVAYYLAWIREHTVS
T1 sequence (P00748 20-372 partner limits assumed): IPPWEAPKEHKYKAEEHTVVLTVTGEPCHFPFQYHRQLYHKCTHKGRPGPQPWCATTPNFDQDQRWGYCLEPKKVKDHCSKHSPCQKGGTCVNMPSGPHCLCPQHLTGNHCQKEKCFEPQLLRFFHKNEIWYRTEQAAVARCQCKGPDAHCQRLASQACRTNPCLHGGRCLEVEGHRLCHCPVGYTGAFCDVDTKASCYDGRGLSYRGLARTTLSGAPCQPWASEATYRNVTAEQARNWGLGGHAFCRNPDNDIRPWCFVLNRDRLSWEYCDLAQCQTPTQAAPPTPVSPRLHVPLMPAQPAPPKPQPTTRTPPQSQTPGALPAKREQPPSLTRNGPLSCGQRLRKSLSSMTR
How it was run: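 At substrate Km and 25° C., the rate of AFC release from H-DPro-Phe-Arg-AFC by human Factor XIIa was followed for 5 min across compound concentrations. Inhibition was derived as percent of uninhibited rate, giving IC50.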

[2] = molecular target: T2, Plasma Kallikrein (Homo sapiens, UniProt P03952); experiment: Related protease inhibition: Plasma Kallikrein (fluorogenic substrate at Km); details: class symbols per Table 18, read-out: IC50 (human PKal)
T2 construct: FXIIa converts plasma prekallikrein (PK) to plasma kallikrein (PKa)
T2 sequence (P03952 391-638 limits assumed): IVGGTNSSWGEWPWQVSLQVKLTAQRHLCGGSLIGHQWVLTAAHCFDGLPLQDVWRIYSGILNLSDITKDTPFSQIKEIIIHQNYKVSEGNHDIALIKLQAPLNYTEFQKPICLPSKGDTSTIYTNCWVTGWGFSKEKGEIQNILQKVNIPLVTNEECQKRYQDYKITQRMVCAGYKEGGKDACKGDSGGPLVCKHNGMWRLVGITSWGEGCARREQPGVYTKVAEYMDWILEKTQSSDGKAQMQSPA
T2 sequence (P03952 20-390 partner limits assumed): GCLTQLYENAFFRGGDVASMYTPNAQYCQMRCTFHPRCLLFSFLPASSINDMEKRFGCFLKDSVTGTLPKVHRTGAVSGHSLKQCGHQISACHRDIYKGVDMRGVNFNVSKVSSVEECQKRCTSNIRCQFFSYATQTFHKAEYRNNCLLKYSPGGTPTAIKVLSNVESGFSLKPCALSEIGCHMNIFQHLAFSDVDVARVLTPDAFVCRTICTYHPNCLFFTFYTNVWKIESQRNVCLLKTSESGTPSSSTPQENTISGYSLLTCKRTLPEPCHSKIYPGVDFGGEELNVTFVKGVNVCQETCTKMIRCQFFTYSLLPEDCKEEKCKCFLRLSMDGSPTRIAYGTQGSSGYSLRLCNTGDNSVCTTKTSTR
Protocol: (§1) In vitro inhibition of related proteases was determined using an IC50 assay based on standard literature methods (see e.g. Shori et al., Biochem. Pharmacol., 1992, 43, 1209; Bouckaert et al., European Journal of Medicinal Chemistry 110 (2016) 181). Human serine protease enzyme Plasma Kallikrein, KLK1, FXa, Plasmin, Thrombin and Trypsin were assayed for enzymatic activity using an appropriate fluorogenic substrate at Km concentration, FXIa at fixed substrate concentration of 100 μM and various concentrations of the test compound. Protease activity was measured by monitoring the accumulation of liberated fluorescence from the substrate over 5 min at 25° C. The linear rate of fluorescence increase per minute was expressed as percentage (%) activity. IC50 values were calculated as the concentration of inhibitor giving 50% inhibition of the uninhibited enzyme activity (100%).

[3] = molecular target: KLK1 (Homo sapiens, UniProt P06870); experiment: Related protease inhibition: KLK1 (fluorogenic substrate at Km); details: class symbols per Table 18
Sequence of KLK1 (P06870 25-262): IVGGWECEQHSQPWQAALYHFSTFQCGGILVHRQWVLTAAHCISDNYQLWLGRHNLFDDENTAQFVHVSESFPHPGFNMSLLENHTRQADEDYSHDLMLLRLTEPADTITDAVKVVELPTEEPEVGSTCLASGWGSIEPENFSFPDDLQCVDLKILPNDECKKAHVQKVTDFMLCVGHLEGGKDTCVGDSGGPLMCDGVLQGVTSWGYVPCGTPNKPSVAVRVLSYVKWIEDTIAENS
Protocol: as §1

[4] = molecular target: FXa (Homo sapiens, UniProt P00742); experiment: Related protease inhibition: FXa (fluorogenic substrate at Km); details: class symbols per Table 18
Sequence of FXa (P00742 235-488 limits assumed): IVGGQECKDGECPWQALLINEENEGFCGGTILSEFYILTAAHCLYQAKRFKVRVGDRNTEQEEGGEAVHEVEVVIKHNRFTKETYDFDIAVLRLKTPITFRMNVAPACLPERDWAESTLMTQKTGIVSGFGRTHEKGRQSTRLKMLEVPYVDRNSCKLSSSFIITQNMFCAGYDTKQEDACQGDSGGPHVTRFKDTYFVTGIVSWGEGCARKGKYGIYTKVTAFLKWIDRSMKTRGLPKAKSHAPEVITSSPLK
Sequence of FXa (P00742 41-179 partner limits assumed): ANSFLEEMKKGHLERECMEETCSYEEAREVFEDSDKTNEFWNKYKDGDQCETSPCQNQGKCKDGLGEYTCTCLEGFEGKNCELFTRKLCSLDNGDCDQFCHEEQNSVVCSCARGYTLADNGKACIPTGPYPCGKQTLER
Protocol: as §1

[5] = molecular target: Thrombin (Homo sapiens, UniProt P00734); experiment: Related protease inhibition: Thrombin (fluorogenic substrate at Km); details: class symbols per Table 18
Protocol: as §1

Compound | IC50 [1] | IC50 [2] | IC50 [3] | IC50 [4] | IC50 [5]
Nc1nccc2c(NCC34CC(COc5ccn6ccnc6n5)(CO3)C4)cccc12 [Example 6614, N5-((4-((imidazo[1,2-a]pyrimidin-7-yloxy)methyl)-2-oxabicyclo[2.1.1]hexan-1-yl)methyl)isoquinoline-1,5-diamine] | 0.1 to 0.3 µM | > 4 µM | 3 to 10 µM | > 40 µM | 
Nc1nccc2c(NC[C@H]3C[C@H](COc4ccn5ccnc5c4)C3)cccc12 [Example 4401, N5-((trans-3-((imidazo[1,2-a]pyridin-7-yloxy)methyl)cyclobutyl)methyl)isoquinoline-1,5-diamine] | 0.3 to 1 µM | > 40 µM | 1 to 3 µM | > 40 µM | > 40 µM
Cn1ccc(OCC23CC(CNc4cccc5c(N)nccc45)(CN2C(=O)OCc2ccccc2)C3)cc1=O [Example 13001, benzyl 4-(((1-aminoisoquinolin-5-yl)amino)methyl)-1-(((1-methyl-2-oxo-1,2-dihydropyridin-4-yl)oxy)methyl)-2-azabicyclo[2.1.1]hexane-2-carboxylate] | 0.01 to 0.1 µM | > 40 µM | > 4 µM | > 4 µM | 
Nc1nccc2c(NCC34CC(COc5ccc6nnc(C(F)F)n6n5)(CO3)C4)cccc12 [Example 6608, N5-((4-(((3-(difluoromethyl)-[1,2,4]triazolo[4,3-b]pyridazin-6-yl)oxy)methyl)-2-oxabicyclo[2.1.1]hexan-1-yl)methyl)isoquinoline-1,5-diamine] | 0.3 to 1 µM | > 40 µM | 3 to 10 µM | > 40 µM | > 40 µM
Cc1cc(OCC23COC(CNc4cccc5c(N)nccc45)(C2)C3)cn2ccnc12 [Example 6617, N5-((4-(((8-methylimidazo[1,2-a]pyridin-6-yl)oxy)methyl)-2-oxabicyclo[2.1.1]hexan-1-yl)methyl)isoquinoline-1,5-diamine] | 0.01 to 0.1 µM | > 40 µM | 3 to 10 µM | 10 to 40 µM | 
Cc1cc2c(NCC34CC(COc5ccn6ccnc6c5)(C3)C4)ccnc2[nH]1 [Example 1012, N-((3-((Imidazo[1,2-a]pyridin-7-yloxy)methyl)bicyclo[1.1.1]pentan-1-yl)methyl)-2-methyl-1H-pyrrolo[2,3-b]pyridin-4-amine] | 1 to 3 µM | > 100 µM | > 40 µM | 1 to 3 µM | 1 to 3 µM
c1cc(NCC23CC(COc4ccn5ccnc5c4)(C2)C3)c2cc[nH]c2n1 [Example 1009, N-((3-((imidazo[1,2-a]pyridin-7-yloxy)methyl)bicyclo[1.1.1]pentan-1-yl)methyl)-1H-pyrrolo[2,3-b]pyridin-4-amine] | 10 to 40 µM | > 100 µM | > 100 µM |  | 
Cn1ccc(OCC23CNC(CNc4cccc5c(N)nccc45)(C2)C3)cc1=O [Example 12007, 4-((1-(((1-aminoisoquinolin-5-yl)amino)methyl)-2-azabicyclo[2.1.1]hexan-4-yl)methoxy)-1-methylpyridin-2(1H)-one] | 0.01 to 0.1 µM | > 4 µM | 10 to 40 µM | > 40 µM | 
Clc1cccc(NCC23CC(COc4ccn5ccnc5c4)(CCO2)C3)c1 [Example 10919, 3-chloro-N-((5-((imidazo[1,2-a]pyridin-7-yloxy)methyl)-2-oxabicyclo[3.1.1]heptan-1-yl)methyl)aniline] |  | > 40 µM | > 100 µM | > 40 µM | 
CN1Cc2ccc(OCC34CC(CNc5cccc6c(N)nccc56)(CO3)C4)cc2C1=O [Example 2211, 6-((4-(((1-aminoisoquinolin-5-yl)amino)methyl)-2-oxabicyclo[2.1.1]hexan-1-yl)methoxy)-2-methylisoindolin-1-one] | 0.1 to 0.3 µM | > 4 µM | 1 to 3 µM | > 40 µM | 
Clc1cc2c(NCC34CC(COc5ccn6ccnc6c5)(C3)C4)ccnc2[nH]1 [Example 1010] | 0.3 to 1 µM |  | > 40 µM | 1 to 3 µM | 
Nc1nccc2c(NCC34CC(COc5ccn6cc(C(F)F)nc6c5)(CO3)C4)cccc12 [Example 6613, N5-((4-(((2-(difluoromethyl)imidazo[1,2-a]pyridin-7-yl)oxy)methyl)-2-oxabicyclo[2.1.1]hexan-1-yl)methyl)isoquinoline-1,5-diamine] | 0.3 to 1 µM |  | 3 to 10 µM | 10 to 40 µM | 
Clc1ccc(NCC23CC(COc4ccn5ccnc5c4)(CCO2)C3)cc1 [Example 10918, 4-chloro-N-((5-((imidazo[1,2-a]pyridin-7-yloxy)methyl)-2-oxabicyclo[3.1.1]heptan-1-yl)methyl)aniline] |  | > 40 µM | > 100 µM | > 40 µM | 
Nc1nccc2c(NCC34CCCC(COc5ccc6nccn6c5)(C3)C4)cccc12 [Example 10942, N5-((5-((imidazo[1,2-a]pyridin-6-yloxy)methyl)bicyclo[3.1.1]heptan-1-yl)methyl)isoquinoline-1,5-diamine] | 0.1 to 0.3 µM |  | 3 to 10 µM | > 40 µM | 
Nc1nccc2c(NCC34CC(COc5cn6ccnc6cn5)(CO3)C4)cccc12 [Example 6616, N5-((4-((imidazo[1,2-a]pyrazin-6-yloxy)methyl)-2-oxabicyclo[2.1.1]hexan-1-yl)methyl)isoquinoline-1,5-diamine] | 0.3 to 1 µM |  | 3 to 10 µM | > 40 µM | 
CC(=O)N1CC2(COc3ccn(C)c(=O)c3)CC1(CNc1cccc3c(N)nccc13)C2 [Example 12009, 4-((2-acetyl-1-(((1-aminoisoquinolin-5-yl)amino)methyl)-2-azabicyclo[2.1.1]hexan-4-yl)methoxy)-1-methylpyridin-2(1H)-one] | 0.01 to 0.1 µM | > 4 µM | 10 to 40 µM | > 40 µM | 
Cn1ccc(OCC23CN(C(=O)Oc4ccccc4)C(CNc4cccc5c(N)nccc45)(C2)C3)cc1=O [Example 12008, phenyl 1-(((1-aminoisoquinolin-5-yl)amino)methyl)-4-(((1-methyl-2-oxo-1,2-dihydropyridin-4-yl)oxy)methyl)-2-azabicyclo[2.1.1]hexane-2-carboxylate] | 0.01 to 0.1 µM | > 4 µM | 1 to 3 µM | > 40 µM | 
Cc1cc2nccn2cc1OCC12COC(CNc3cccc4c(N)nccc34)(C1)C2 [Example 6622, N5-((4-(((7-methylimidazo[1,2-a]pyridin-6-yl)oxy)methyl)-2-oxabicyclo[2.1.1]hexan-1-yl)methyl)isoquinoline-1,5-diamine] | 0.01 to 0.1 µM |  | 1 to 3 µM |  | 
Cn1ccc(OCC23CN(C(=O)OCc4ccccc4)C(CNc4ccc5c(N)nccc5c4)(C2)C3)cc1=O [Example 12010, benzyl 1-(((1-aminoisoquinolin-6-yl)amino)methyl)-4-(((1-methyl-2-oxo-1,2-dihydropyridin-4-yl)oxy)methyl)-2-azabicyclo[2.1.1]hexane-2-carboxylate] | 0.1 to 0.3 µM |  | 0.01 to 0.1 µM |  | 
Nc1nccc2c(NCC34CC(COc5cc(Cl)c6nccn6c5)(CCO3)C4)cccc12 [Example 10924, N5-((5-(((8-chloroimidazo[1,2-a]pyridin-6-yl)oxy)methyl)-2-oxabicyclo[3.1.1]heptan-1-yl)methyl)isoquinoline-1,5-diamine] | 0.1 to 0.3 µM |  | 3 to 10 µM |  | 
Nc1nccc2c(NCC34CC(COc5ccc6nc(C(F)(F)F)cn6n5)(CO3)C4)cccc12 [Example 6615, N5-((4-(((2-(trifluoromethyl)imidazo[1,2-b]pyridazin-6-yl)oxy)methyl)-2-oxabicyclo[2.1.1]hexan-1-yl)methyl)isoquinoline-1,5-diamine] | 3 to 10 µM |  | 3 to 10 µM | > 40 µM | 
Cc1cn2ccnc2cc1OCC12CCOC(CNc3cccc4c(N)nccc34)(C1)C2 [Example 10920, N5-((5-(((6-methylimidazo[1,2-a]pyridin-7-yl)oxy)methyl)-2-oxabicyclo[3.1.1]heptan-1-yl)methyl)isoquinoline-1,5-diamine] | 0.1 to 0.3 µM | 3 to 10 µM | 3 to 10 µM | 10 to 40 µM | 

Reference: US20240327412A1, “FACTOR XIIA INHIBITORS” (KALVISTA PHARMACEUTICALS LIMITED, priority 2021, published 2024)
